T/C data for five compounds are collected here from PubChem BioAssay AID256 (DTP/NCI, 2004).

Where “and” joins values, the source holds several entries; their conditions need not be identical. Identical values can stand only once. Inconclusive results and toxic doses are left out.

This test relates to CD2F1 mice, L1210 leukemia ip, survival T/C. The test can be described thus: NCI In Vivo Anticancer Drug Screen. Data for tumor model L1210 Leukemia (intraperitoneal) in CD2F1 (CDF1) mice. Conditions: higher = longer survival. In outline: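 Implant tumor; dose compound or vehicle; measure endpoint in both groups; report treated divided by control.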

Turning to `O=C(OC(c1ccccc1)c1ccccc1)C(CSC(c1ccccc1)(c1ccccc1)c1ccccc1)NC(c1ccccc1)(c1ccccc1)c1ccccc1` (configuration not stated), the T/C (endpoint: mean survival time, dose: 50.0 mg/kg/injection, schedule: Q01DX009 (ip), vehicle: saline) was 96 % of control; the T/C (endpoint: mean survival time, dose: 100.0 mg/kg/injection, schedule: Q01DX009 (ip), vehicle: saline) was 101 % of control; the T/C (endpoint: mean survival time, dose: 200.0 mg/kg/injection, schedule: Q01DX009 (ip), vehicle: saline) is 102 % of control; the T/C (endpoint: mean survival time, dose: 400.0 mg/kg/injection, schedule: Q01DX009 (ip), vehicle: saline) is 98 % of control.

As for `COc1ccc(CC(N)C(=O)NC2C(COP(=O)(O)OC3CC(n4cc(C)c(=O)[nH]c4=O)OC3CO)OC(n3cnc4c(N(C)C)ncnc43)C2O)cc1` (configuration not stated), the T/C is 96 % of control (endpoint: median survival time, dose: 5.63 mg/kg/injection, schedule: Q01DX005 (ip), vehicle: water); 96 % of control (endpoint: median survival time, dose: 11.25 mg/kg/injection, schedule: Q01DX005 (ip), vehicle: water); 109 % of control (endpoint: median survival time, dose: 21.9 mg/kg/injection, schedule: Q01DX005 (ip), vehicle: saline); 94 % of control (endpoint: median survival time, dose: 22.5 mg/kg/injection, schedule: Q01DX005 (ip), vehicle: water); 106 % of control (endpoint: median survival time, dose: 43.8 mg/kg/injection, schedule: Q01DX005 (ip), vehicle: saline); 100 % of control (endpoint: median survival time, dose: 45.0 mg/kg/injection, schedule: Q01DX005 (ip), vehicle: water). In addition, the T/C (endpoint: median survival time, dose: 87.5 mg/kg/injection, schedule: Q01DX005 (ip), vehicle: saline) was 108 % of control; the T/C (endpoint: median survival time, dose: 90.0 mg/kg/injection, schedule: Q01DX005 (ip), vehicle: water) was 104 % of control; the T/C (endpoint: median survival time, dose: 175.0 mg/kg/injection, schedule: Q01DX005 (ip), vehicle: saline) is 102 % of control.

Turning to `CC(=O)OCc1ccc(Cl)cc1Cl`, the T/C reads like this: (endpoint: mean survival time, dose: 100.0 mg/kg/injection, schedule: Q01DX009 (ip), vehicle: saline with Tween-80) 98 % of control; (endpoint: mean survival time, dose: 200.0 mg/kg/injection, schedule: Q01DX009 (ip), vehicle: saline with Tween-80) 104 % of control; (endpoint: mean survival time, dose: 400.0 mg/kg/injection, schedule: Q01DX009 (ip), vehicle: saline with Tween-80) 95 % of control.

Take `O=c1[nH]cnc2c1CN(c1ccccc1)C2`: the T/C was 113 % of control (endpoint: mean survival time, dose: 75.0 mg/kg/injection, schedule: Q01DX001 (ip), vehicle: saline) and 104 % of control (endpoint: mean survival time, dose: 150.0 mg/kg/injection, schedule: Q01DX001 (ip), vehicle: saline).

As to `OC(CBr)C(O)C(O)C(O)CBr` (configuration not stated), the T/C was 109 % of control (endpoint: mean survival time, dose: 25.0 mg/kg/injection, schedule: Q01DX009 (oral), vehicle: other); 112 % of control (endpoint: mean survival time, dose: 50.0 mg/kg/injection, schedule: Q01DX009 (oral), vehicle: other); 103 % of control (endpoint: mean survival time, dose: 100.0 mg/kg/injection, schedule: Q01DX001 (ip), vehicle: saline); 121 % of control (endpoint: mean survival time, dose: 100.0 mg/kg/injection, schedule: Q01DX009 (oral), vehicle: other); 101 % of control and 103 % of control (endpoint: mean survival time, dose: 100.0 mg/kg/injection, schedule: Q04DX003 (ip), vehicle: saline); 101 % of control (endpoint: mean survival time, dose: 200.0 mg/kg/injection, schedule: Q01DX001 (ip), vehicle: saline). Besides, the T/C reads like this: (endpoint: mean survival time, dose: 200.0 mg/kg/injection, schedule: Q04DX003 (ip), vehicle: Klucel (hydroxypropylcellulose) (HPC)) 120 % of control; (endpoint: mean survival time, dose: 200.0 mg/kg/injection, schedule: Q04DX003 (ip), vehicle: saline) 108 % of control; (endpoint: mean survival time, dose: 237.0 mg/kg/injection, schedule: Q04DX003 (ip), vehicle: saline with Tween-80) 94 % of control; (endpoint: mean survival time, dose: 355.55 mg/kg/injection, schedule: Q04DX003 (ip), vehicle: saline with Tween-80) 89 % of control; (endpoint: mean survival time, dose: 400.0 mg/kg/injection, schedule: Q01DX001 (ip), vehicle: saline) 106 % of control; (endpoint: mean survival time, dose: 400.0 mg/kg/injection, schedule: Q01DX009 (oral), vehicle: other) 113 % of control. For the same compound, the T/C (endpoint: mean survival time, dose: 400.0 mg/kg/injection, schedule: Q04DX003 (ip), vehicle: saline) was 101 % of control and 108 % of control; the T/C (endpoint: mean survival time, dose: 533.33 mg/kg/injection, schedule: Q04DX003 (ip), vehicle: saline with Tween-80) is 99 % of control; the T/C (endpoint: mean survival time, dose: 800.0 mg/kg/injection, schedule: Q04DX003 (ip), vehicle: saline with Tween-80) is 94 % of control; the T/C (endpoint: mean survival time, dose: 800.0 mg/kg/injection, schedule: Q04DX003 (ip), vehicle: saline) is 116 % of control; the T/C (endpoint: mean survival time, dose: 1200.0 mg/kg/injection, schedule: Q04DX003 (ip), vehicle: saline with Tween-80) is 98 % of control; the T/C (endpoint: mean survival time, dose: 1200.0 mg/kg/injection, schedule: Q04DX003 (ip), vehicle: saline) was 114 % of control. Moreover, the T/C runs as follows: (endpoint: median survival time, dose: 8.0 mg/kg/injection, schedule: Q03HX024 (ip), vehicle: Klucel (hydroxypropylcellulose) (HPC)) 103 % of control; (endpoint: median survival time, dose: 16.0 mg/kg/injection, schedule: Q03HX008 (ip), vehicle: Klucel (hydroxypropylcellulose) (HPC)) 108 % of control; (endpoint: median survival time, dose: 16.0 mg/kg/injection, schedule: Q03HX016 (ip), vehicle: Klucel (hydroxypropylcellulose) (HPC)) 105 % of control; (endpoint: median survival time, dose: 16.0 mg/kg/injection, schedule: Q03HX024 (ip), vehicle: Klucel (hydroxypropylcellulose) (HPC)) 106 % of control; (endpoint: median survival time, dose: 32.0 mg/kg/injection, schedule: Q01DX009 (ip), vehicle: Klucel (hydroxypropylcellulose) (HPC)) 104 % of control; (endpoint: median survival time, dose: 32.0 mg/kg/injection, schedule: Q03HX008 (ip), vehicle: Klucel (hydroxypropylcellulose) (HPC)) 115 % of control. Also, the T/C is 103 % of control (endpoint: median survival time, dose: 32.0 mg/kg/injection, schedule: Q03HX016 (ip), vehicle: Klucel (hydroxypropylcellulose) (HPC)); 109 % of control (endpoint: median survival time, dose: 32.0 mg/kg/injection, schedule: Q03HX024 (ip), vehicle: Klucel (hydroxypropylcellulose) (HPC)); 105 % of control (endpoint: median survival time, dose: 64.0 mg/kg/injection, schedule: Q01DX009 (ip), vehicle: Klucel (hydroxypropylcellulose) (HPC)); 109 % of control (endpoint: median survival time, dose: 64.0 mg/kg/injection, schedule: Q04DX003 (ip), vehicle: Klucel (hydroxypropylcellulose) (HPC)); 151 % of control and 159 % of control and 163 % of control (endpoint: median survival time, dose: 120.0 mg/kg/injection, schedule: Q01DX005 (ip), vehicle: Klucel (hydroxypropylcellulose) (HPC)); 108 % of control (endpoint: median survival time, dose: 128.0 mg/kg/injection, schedule: Q01DX001 (ip), vehicle: Klucel (hydroxypropylcellulose) (HPC)). Moreover, the T/C runs as follows: (endpoint: median survival time, dose: 128.0 mg/kg/injection, schedule: Q01DX009 (ip), vehicle: Klucel (hydroxypropylcellulose) (HPC)) 86 % of control; (endpoint: median survival time, dose: 128.0 mg/kg/injection, schedule: Q04DX003 (ip), vehicle: Klucel (hydroxypropylcellulose) (HPC)) 122 % of control; (endpoint: median survival time, dose: 128.0 mg/kg/injection, schedule: Q08DX002 (ip), vehicle: Klucel (hydroxypropylcellulose) (HPC)) 109 % of control; (endpoint: median survival time, dose: 180.0 mg/kg/injection, schedule: Q01DX005 (ip), vehicle: Klucel (hydroxypropylcellulose) (HPC)) 155 % of control and 162 % of control and 164 % of control; (endpoint: median survival time, dose: 200.0 mg/kg/injection, schedule: Q04DX003 (ip), vehicle: Klucel (hydroxypropylcellulose) (HPC)) 151 % of control; (endpoint: median survival time, dose: 256.0 mg/kg/injection, schedule: Q01DX001 (ip), vehicle: Klucel (hydroxypropylcellulose) (HPC)) 112 % of control. For the same compound, the T/C is 109 % of control (endpoint: median survival time, dose: 256.0 mg/kg/injection, schedule: Q04DX003 (ip), vehicle: Klucel (hydroxypropylcellulose) (HPC)); 114 % of control (endpoint: median survival time, dose: 256.0 mg/kg/injection, schedule: Q08DX002 (ip), vehicle: Klucel (hydroxypropylcellulose) (HPC)); 100 % of control (endpoint: median survival time, dose: 270.0 mg/kg/injection, schedule: Q01DX005 (ip), vehicle: Klucel (hydroxypropylcellulose) (HPC)); 155 % of control and 184 % of control and 197 % of control (endpoint: median survival time, dose: 300.0 mg/kg/injection, schedule: Q04DX003 (ip), vehicle: Klucel (hydroxypropylcellulose) (HPC)); 195 % of control (endpoint: median survival time, dose: 400.0 mg/kg/injection, schedule: Q04DX003 (ip), vehicle: Klucel (hydroxypropylcellulose) (HPC)); 95 % of control (endpoint: median survival time, dose: 512.0 mg/kg/injection, schedule: Q01DX001 (ip), vehicle: Klucel (hydroxypropylcellulose) (HPC)). Moreover, the T/C is, setting by setting: (endpoint: median survival time, dose: 512.0 mg/kg/injection, schedule: Q04DX003 (ip), vehicle: Klucel (hydroxypropylcellulose) (HPC)) 112 % of control; (endpoint: median survival time, dose: 512.0 mg/kg/injection, schedule: Q08DX002 (ip), vehicle: Klucel (hydroxypropylcellulose) (HPC)) 122 % of control.
